Where “and” joins values, the source holds several entries; their conditions need not be identical. Equal values may be shown once.
Assay: xn = mol fraction of the nth substance listed
Settings: 101.3 kPa

CCCC[N+]1(C)CCCCC1.F[P-](F)(F)(F)(F)F + CCCC[n+]1cccc(C)c1.F[P-](F)(F)(F)(F)F + CCCC[N+]1(C)CCCC1.F[P-](F)(F)(F)(F)F
viscosity
Settings	333.15 K	338.15 K	343.15 K	348.15 K	353.15 K	358.15 K	363.15 K
x2 = 0.2, x1 = 0.32	–	194 mPa·s	152 mPa·s	121 mPa·s	98 mPa·s	80 mPa·s	66 mPa·s
x2 = 0.3, x1 = 0.28	–	163 mPa·s	129 mPa·s	103 mPa·s	84 mPa·s	69 mPa·s	57 mPa·s
x2 = 0.4, x1 = 0.06	–	111 mPa·s	89 mPa·s	72 mPa·s	60 mPa·s	50 mPa·s	42 mPa·s
x2 = 0.4, x1 = 0.12	–	121 mPa·s	97 mPa·s	78 mPa·s	64 mPa·s	53 mPa·s	45 mPa·s
x2 = 0.4, x1 = 0.18	–	125 mPa·s	100 mPa·s	81 mPa·s	66 mPa·s	55 mPa·s	46 mPa·s
x2 = 0.4, x1 = 0.24	–	137 mPa·s and 138 mPa·s	109 mPa·s	87 mPa·s and 88 mPa·s	71 mPa·s and 72 mPa·s	59 mPa·s	49 mPa·s
x2 = 0.4, x1 = 0.3	–	145 mPa·s	115 mPa·s	92 mPa·s	75 mPa·s	62 mPa·s	51 mPa·s
x2 = 0.4, x1 = 0.36	–	155 mPa·s	122 mPa·s	97 mPa·s	79 mPa·s	65 mPa·s	54 mPa·s
x2 = 0.4, x1 = 0.42	–	165 mPa·s	129 mPa·s	103 mPa·s	83 mPa·s	68 mPa·s	56 mPa·s
x2 = 0.4, x1 = 0.48	–	176 mPa·s	137 mPa·s	109 mPa·s	88 mPa·s	71 mPa·s	59 mPa·s
x2 = 0.4, x1 = 0.54	–	188 mPa·s	146 mPa·s	116 mPa·s	93 mPa·s	75 mPa·s	62 mPa·s
x2 = 0.5, x1 = 0.2	–	117 mPa·s	93 mPa·s	75 mPa·s	62 mPa·s	51 mPa·s	43 mPa·s
x2 = 0.6, x1 = 0.16	127 mPa·s	100 mPa·s	80 mPa·s	65 mPa·s	54 mPa·s	45 mPa·s	38 mPa·s
x2 = 0.7, x1 = 0.12	109 mPa·s	87 mPa·s	70 mPa·s	57 mPa·s	47 mPa·s	39 mPa·s	33 mPa·s
x2 = 0.8, x1 = 0.08	95 mPa·s	76 mPa·s	61 mPa·s	50 mPa·s	42 mPa·s	35 mPa·s	30 mPa·s
x2 = 0.9, x1 = 0.04	84 mPa·s	67 mPa·s	54 mPa·s	45 mPa·s	37 mPa·s	31 mPa·s	27 mPa·s

From the CheMixHub ionic liquid set
